# Assay results from ChEMBL document CHEMBL1201862, “PubChem BioAssay data set” (2004).
#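 All cell lines were grown in 96-well plates and treated with compound for 48 hours. GI50 = concentration required for 50% inhibition of growth.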 Activity calls are given as the source filed them. Rule as the data show it: active = GI50 up to about 1.1 µM and inactive = higher.
# Key:
# Test in all cases: NCI anticancer screen, dose series, 48 h
# OVCAR-4 = system: OVCAR-4
# SNB-19 = system: SNB-19
# EKVX = system: EKVX
# SK-MEL-5 = system: SK-MEL-5
# BT-549 = system: BT-549
# HCT-116 = system: HCT-116
# MOLT-4 = system: MOLT-4
# A549 = system: A549
# SK-OV-3 = system: SK-OV-3
# HL-60 = system: HL-60
# NCI/ADR-RES = system: NCI/ADR-RES
# KM12 = system: KM12
# RPMI-8226 = system: RPMI-8226
# Hs-578T = system: Hs-578T
# IGROV-1 = system: IGROV-1
# UACC-257 = system: UACC-257
# RXF 393 = system: RXF 393
# UACC-62 = system: UACC-62
# T47D = system: T47D
# MCF7 = system: MCF7
SMILES,GI50 (OVCAR-4),GI50 (SNB-19),GI50 (EKVX),GI50 (SK-MEL-5),GI50 (BT-549),GI50 (HCT-116),GI50 (MOLT-4),GI50 (A549),GI50 (SK-OV-3),GI50 (HL-60),GI50 (NCI/ADR-RES),GI50 (KM12),GI50 (RPMI-8226),GI50 (Hs-578T),GI50 (IGROV-1),GI50 (UACC-257),GI50 (RXF 393),GI50 (UACC-62),GI50 (T47D),GI50 (MCF7)
COc1cc(OC)cc(-c2nc(O)c3ccccc3n2)c1,> 100 µM (inactive),49 µM (inactive),> 100 µM (inactive),> 100 µM (inactive),> 100 µM (inactive),42.5 µM (inactive),> 100 µM (inactive),> 100 µM (inactive),22.8 µM (inactive),> 100 µM (inactive),40.7 µM (inactive),> 100 µM (inactive),> 100 µM (inactive),38.8 µM (inactive),93.1 µM (inactive),> 100 µM (inactive),29.8 µM (inactive),> 100 µM (inactive),> 100 µM (inactive),–
O=C(c1ccc(Cl)cc1)c1cnc(Nc2ccccc2Cl)s1,33.4 µM (inactive),20.2 µM (inactive),22.9 µM (inactive),18.5 µM (inactive),20.7 µM (inactive),21 µM (inactive),> 100 µM (inactive),23.9 µM (inactive),23 µM (inactive),> 100 µM (inactive),–,27.2 µM (inactive),> 100 µM (inactive),32.4 µM (inactive),23.2 µM (inactive),21 µM (inactive),20.7 µM (inactive),21.5 µM (inactive),19.3 µM (inactive),31.5 µM (inactive)
CC(=O)Oc1cc2c(cc1OC(C)=O)[C@H]1CC[C@]3(C)[C@@H](OC(C)=O)CC[C@H]3[C@@H]1CC2,5.61 µM (inactive),6.65 µM (inactive),2.56 µM (inactive),5.62 µM (inactive),1.99 µM (inactive),–,–,7.96 µM (inactive),6.38 µM (inactive),–,9.53 µM (inactive),8.91 µM (inactive),1.92 µM (inactive),1.87 µM (inactive),3.77 µM (inactive),9.66 µM (inactive),4.5 µM (inactive),–,7.26 µM (inactive),6.37 µM (inactive)
O=C(/C=C(\S/C=C(/c1ccccc1)N1CCn2c(C(=O)c3ccccc3)c(C(=O)c3ccccc3)c(C(=O)c3ccccc3)c21)C(=O)c1ccccc1)c1ccccc1,> 10 µM (inactive),> 10 µM (inactive),> 10 µM (inactive),> 10 µM (inactive),> 10 µM (inactive),> 10 µM (inactive),> 10 µM (inactive),> 10 µM (inactive),> 10 µM (inactive),> 10 µM (inactive),> 10 µM (inactive),> 10 µM (inactive),> 10 µM (inactive),> 10 µM (inactive),> 10 µM (inactive),> 10 µM (inactive),–,> 10 µM (inactive),> 10 µM (inactive),> 10 µM (inactive)
CC(=O)Oc1ccc2c(c1OC(C)=O)CCC1C2=CC[C@]2(C)C(=O)CCC12 (stereo not given in full),3.36 µM (inactive),12.5 µM (inactive),10.5 µM (inactive),< 0.01 µM (active),15.6 µM (inactive),4.92 µM (inactive),3.3 µM (inactive),16 µM (inactive),20.7 µM (inactive),6.89 µM (inactive),27.6 µM (inactive),16 µM (inactive),1 µM (active),19.6 µM (inactive),4.73 µM (inactive),25.6 µM (inactive),–,12.3 µM (inactive),9.46 µM (inactive),14.2 µM (inactive)
O=C1CS(=O)(=O)C(c2cccc(Oc3ccccc3)c2)N1c1cc(Cl)ccc1Cl (stereo not given),–,22.4 µM (inactive),35.2 µM (inactive),15.8 µM (inactive),19 µM (inactive),20.2 µM (inactive),39.3 µM (inactive),38.2 µM (inactive),24 µM (inactive),34.2 µM (inactive),25.7 µM (inactive),17.8 µM (inactive),–,33.3 µM (inactive),–,23.1 µM (inactive),–,15.5 µM (inactive),15.6 µM (inactive),16.1 µM (inactive)
O=C(c1ccc(O)c([N+](=O)[O-])c1)c1ccc(O)c([N+](=O)[O-])c1,> 100 µM (inactive),> 100 µM (inactive),> 100 µM (inactive),> 100 µM (inactive),33 µM (inactive),> 100 µM (inactive),–,89.9 µM (inactive),> 100 µM (inactive),–,43.6 µM (inactive),35.2 µM (inactive),3.33 µM (inactive),46.3 µM (inactive),> 100 µM (inactive),81.7 µM (inactive),> 100 µM (inactive),37.1 µM (inactive),> 100 µM (inactive),93.1 µM (inactive)
ON[C@@H]1C=C[C@H](n2cnc3c(NC4CC4)ncnc32)C1,> 100 µM (inactive),> 100 µM (inactive),> 100 µM (inactive),> 100 µM (inactive),> 100 µM (inactive),86.5 µM (inactive),> 100 µM (inactive),> 100 µM (inactive),> 100 µM (inactive),–,> 100 µM (inactive),> 100 µM (inactive),> 100 µM (inactive),> 100 µM (inactive),94.4 µM (inactive),> 100 µM (inactive),> 100 µM (inactive),> 100 µM (inactive),> 100 µM (inactive),> 100 µM (inactive)
COc1ccc(CC2Cc3ccccc3CC(=O)N2)cc1OC (stereo not given),57 µM (inactive),> 100 µM (inactive),89.7 µM (inactive),14.3 µM (inactive),37.4 µM (inactive),98.9 µM (inactive),24.6 µM (inactive),> 100 µM (inactive),> 100 µM (inactive),21.4 µM (inactive),27.5 µM (inactive),39.2 µM (inactive),–,> 100 µM (inactive),> 100 µM (inactive),47.4 µM (inactive),–,48.2 µM (inactive),17.3 µM (inactive),52 µM (inactive)
CCOC(=O)c1cc(NC(=O)N(CCC#N)CCN(C(=O)N[C@@H](Cc2ccccc2)C(=O)N[C@@H](CC(C)C)C(=O)NC)c2ccccc2)ccc1OC,44 µM (inactive),79.4 µM (inactive),63.1 µM (inactive),42.3 µM (inactive),30.9 µM (inactive),42.4 µM (inactive),23.4 µM (inactive),> 100 µM (inactive),70 µM (inactive),–,> 100 µM (inactive),> 100 µM (inactive),16.3 µM (inactive),42.2 µM (inactive),41.8 µM (inactive),24 µM (inactive),23.1 µM (inactive),4.76 µM (inactive),28.1 µM (inactive),58.6 µM (inactive)
OB1OCc2ccccc21 [BENZOXABOROLE],32.4 µM (inactive),60.8 µM (inactive),–,46.9 µM (inactive),> 100 µM (inactive),44.4 µM (inactive),69.8 µM (inactive),33.8 µM (inactive),16.1 µM (inactive),> 100 µM (inactive),22.3 µM (inactive),65.9 µM (inactive),18.2 µM (inactive),62.1 µM (inactive),35.2 µM (inactive),28.6 µM (inactive),–,35.9 µM (inactive),> 100 µM (inactive),24.9 µM (inactive)
